Source: patent publication US20150175599A1, “FAAH Inhibitors” (Ironwood Pharmaceuticals, Inc., priority 2010, published 2015)

Columns and labels:
[1] = Pharmacokinetic study, plasma level 2 hours after oral dosing in rats; format: in vivo
Description: Pharmacokinetic studies were conducted to determine absorption and distribution profiles of the disclosed compounds which were orally administered to rats.
Compounds were formulated in a 1% DMA/99% Vitamin E TPGS vehicle. Prepared compounds were dosed via oral gavage (PO). Following the appropriate pretreatment time of 2 hours, rats were anesthetized with isoflurane gas. Blood was collected into tubes containing EDTA via retro-orbital eye bleed. Whole blood was spun in a micro-centrifuge at approximately 13,000 rpm for 5 minutes at room temperature. Separated plasma was subsequently aliquoted into eppendorf tubes. Samples were stored at −80° C. until prepped for analysis.
Plasma samples were thawed and the required amount of plasma for standards, blanks and dilutions were made. The dilutions were prepared before plating. Preparation of crash solution included cold acetonitrile+0.1% formic acid and 25 ng/mL of a FAAH inhibitor used as internal standard. solvent standards of the FAAH inhibitor being studied were preparation at 10, 30, 100, 300, 1000, 3000, 10000, 30000, 100000, and 300000 ng/mL in DMSO. Then a plasma standard curve was generated from the solvent standards (final concentrations of standards in plasma were: 0.1, 0.3, 1, 3, 10, 30, 100, 300, 1000, 3000 ng/mL). 50 μL of each plasma sample/dilution, standard, or blank was transferred into 96-well plates. To each well, 200 μL of cold crash solution was added. The plate was covered and gently vortexed. The plate was centrifuged at 3500 rpm, 4° C. for 10 min. 200 μL of each supernatant was transferred into new plates. The plates were dried under nitrogen in a TurboVap at 55° C. The sample in each well was re-suspended with 100 μL of 30% acetonitrile, covered and vortexed gently. The well solutions were analyzed by the LC/MS/MS conditions and specifications below.
HPLC column was a Clipeus C8, 2.1×30 mm, 5 μm, with Basic 8 guard column using 20 μL injections. Mobile phase used was mobile phase A: 0.1% Formic Acid in water and mobile phase B: 0.1% Formic Acid in 85:10:5 ACN:IPA:H2O. The flow rate for the run was 0.5 mL/min and the gradient for the 4 minute total run time was: 0.0 minutes

hERG channel = target: T1, hERG channel (Homo sapiens, UniProt Q12809); experiment: hERG channel inhibition, automated patch clamp (IonWorks HT, hERG-CHO); format: cell-based; details: CHO cells expressing hERG, 600 s incubation; for inhibition at 600 s, 1 µM: 1 μM compound, read-out: hERG Channel Inhibition % (at 1 μM), vehicle-subtracted values; for inhibition at 600 s, 10 µM: 10 μM compound, read-out: hERG Channel Inhibition % (at 10 μM), vehicle-subtracted values
T1 construct: expressed in transfected cells; host or cells: CHO (hERG-CHO), under Geneticin selection
T1 sequence (Q12809 whole entry): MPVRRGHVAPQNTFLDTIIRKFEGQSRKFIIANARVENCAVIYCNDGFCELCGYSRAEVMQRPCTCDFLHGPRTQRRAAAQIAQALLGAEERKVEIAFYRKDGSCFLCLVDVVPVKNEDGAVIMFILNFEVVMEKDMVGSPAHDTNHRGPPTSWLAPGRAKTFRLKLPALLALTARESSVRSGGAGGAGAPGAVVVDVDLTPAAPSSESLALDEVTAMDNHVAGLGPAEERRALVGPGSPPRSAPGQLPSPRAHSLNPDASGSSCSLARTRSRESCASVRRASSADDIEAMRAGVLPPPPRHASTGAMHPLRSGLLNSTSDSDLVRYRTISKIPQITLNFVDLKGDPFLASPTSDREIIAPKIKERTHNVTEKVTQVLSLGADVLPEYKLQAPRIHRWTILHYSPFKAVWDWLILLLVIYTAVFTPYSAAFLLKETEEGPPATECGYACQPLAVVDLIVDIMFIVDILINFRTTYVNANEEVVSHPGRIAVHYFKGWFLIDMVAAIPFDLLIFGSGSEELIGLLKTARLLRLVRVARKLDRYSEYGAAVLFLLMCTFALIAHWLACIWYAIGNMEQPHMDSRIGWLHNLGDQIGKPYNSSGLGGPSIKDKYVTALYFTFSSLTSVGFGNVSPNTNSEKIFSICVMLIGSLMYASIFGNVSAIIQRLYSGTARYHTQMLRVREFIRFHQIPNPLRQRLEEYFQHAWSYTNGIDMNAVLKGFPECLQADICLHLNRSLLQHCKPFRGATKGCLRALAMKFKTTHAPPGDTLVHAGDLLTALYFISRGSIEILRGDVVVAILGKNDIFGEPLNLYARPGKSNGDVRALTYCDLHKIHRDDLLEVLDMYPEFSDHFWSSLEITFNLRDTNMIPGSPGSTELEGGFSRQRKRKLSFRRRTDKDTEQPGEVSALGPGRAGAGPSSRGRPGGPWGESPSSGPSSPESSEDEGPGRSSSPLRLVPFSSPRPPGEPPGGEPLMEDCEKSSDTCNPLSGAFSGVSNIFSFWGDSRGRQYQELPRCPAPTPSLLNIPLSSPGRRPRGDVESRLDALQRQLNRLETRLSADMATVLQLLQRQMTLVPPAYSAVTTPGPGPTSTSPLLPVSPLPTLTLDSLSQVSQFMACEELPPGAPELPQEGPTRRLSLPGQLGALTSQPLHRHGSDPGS
Description: Human ether-a-gogo-related (hERG) ion channel encodes the inward rectifying voltage gated potassium channel in the heart and has a major role during the repolarization of the cardiac action potential. It is well established that blockade of this ion channel can lead to potentially lethal arrhythmias. hERG pre-clinical safety data is often used by regulatory agencies in elucidate the toxicity profile of certain compositions. The disclosed compounds of Table 1 were tested for their ability to inhibit hERG ion channels.
Media components include F12 Nutrient Mixture (Ham) with GlutaMAX™ (Invitrogen, Cat#31765), Fetal Bovine Serum, Certified (Invitrogen, Cat#16000-044—not heat activated), and Geneticin® Selective Antibiotic (Invitrogen, Cat#10131-027).
One vial of frozen cells, at 1.62×10^6 cells are thawed into a T150 flask (BD Falcon 355001) with 40 mL of pre-warmed complete media. Cells are cultured at 37° C., 5% CO2 for four hours prior to gently changing media. 99% of cells appear attached at this time point.
The flask is media changed at 24 hours post-thaw, the cells are imaged, media changed, and returned to the incubator. At this point, the cells appear healthy and about 25% confluent in the flask. Cells are typically passed 24-48 hours after thaw according to the following intervals and densities below. Cells are incubated at 30° C. for 48 hours prior to assay.
Using an automated patch clamp apparatus (IonWorks^HT), a three pulse protocol was applied by stepping from a holding potential of −80 mV to […] for 2 s, to activate hERG channels. The membrane voltage was then stepped back to −50 mV for 2 s to evoke a tail current prior to returning to the holding potential for 1 s. This sequence was repeated a further two times. This voltage protocol was applied prior to drug (Pre compound) and after 600 s in the presence of drug (Post compound).
The amplitude of the hERG tail current was calculated by measuring the difference between the maximum current on stepping to −50 mV of the third pulse (i.e. peak of the outward hERG tail current) and the current measured immediately prior to activation of any hERG current. This parameter was assessed before (pre tail current amplitude) and after 600 s incubation (post tail current amplitude) in drug. In order to assess the amount of block produced by test compounds, the data was first filtered using the IonWorks™ software to exclude any cells where the seal resistance was less than 50 MOhm. The remaining data was then exported to an excel compatible data file and only currents with tail currents greater than 250 pA were analyzed. The post/pre tail current amplitude ratio for the third pulse was calculated for each drug and control, and presented as percent inhibition.

SMILES | 2 hr plasma level-ng/mL (rat, 10 mg/kg PO, 2 hr) [1] | inhibition at 600 s, 1 µM (hERG channel) | inhibition at 600 s, 10 µM (hERG channel)
COc1cc(NC(=O)C(=O)c2c(C)n(Cc3ccc(Cl)cn3)c3ncc(C)cc23)ccn1 [Compound 75, (1-((5-chloropyridin-2-yl)methyl)-2,5-dimethyl-1H-pyrrolo[2,3-b]pyridin-3-yl)-N-(2-methoxypyridin-4-yl)-2-oxoacetamide] | D (D = greater than 1000 nM) |  | 
COc1ccc2c(c1)c(C(=O)C(=O)Nc1ccnc(OC)n1)c(C)n2Cc1ccc(Cl)cc1 [Compound 46, 2-(1-(4-chlorobenzyl)-5-methoxy-2-methyl-1H-indol-3-yl)-N-(2-methoxypyrimidin-4-yl)-2-oxoacetamide] | C (C = between 100 nM and 1000 nM) | < 25% | < 25%
CNc1ccc2c(c1)c(C(=O)C(=O)Nc1ccnc(OC)c1)c(C)n2Cc1ccc(Cl)cc1 [Compound 9, 2-(1-(4-chlorobenzyl)-2-methyl-5-(methylamino)-1H-indol-3-yl)-N-(2-methoxypyridin-4-yl)-2-oxoacetamide] | C (C = between 100 nM and 1000 nM) | < 25% | < 25%
COc1ccc2c(c1)c(C(=O)C(=O)Nc1ccnc(OC)c1)c(C)n2Cc1ccncc1 [Compound 16, 2-(5-methoxy-2-methyl-1-(pyridin-4-ylmethyl)-1H-indol-3-yl)-N-(2-methoxypyridin-4-yl)-2-oxoacetamide] |  | < 25% | < 25%
COc1cnc2c(c1)c(C(=O)C(=O)Nc1ccnc(OC)c1)c(C)n2Cc1ncc(Cl)cc1Cl [Compound 29, 2-(1-((3,5-dichloropyridin-2-yl)methyl)-5-methoxy-2-methyl-1H-pyrrolo[2,3-b]pyridin-3-yl)-N-(2-methoxypyridin-4-yl)-2-oxoacetamide] | D (D = greater than 1000 nM) |  | 
COc1cc(NC(=O)C(=O)c2c(C)n(Cc3ccc(Cl)cc3)c3cc(F)c(OC)cc23)ccn1 [Compound 72, 2-(1-(4-chlorobenzyl)-6-fluoro-5-methoxy-2-methyl-1H-indol-3-yl)-N-(2-methoxypyridin-4-yl)-2-oxoacetamide] | C (C = between 100 nM and 1000 nM) | < 25% | 25 to 50%
COc1cc(NC(=O)C(=O)c2c(C)n(Cc3ncc(Cl)cc3F)c3cc(Cl)c(OC)cc23)ccn1 [Compound 97, 2-(6-chloro-1-((5-chloro-3-fluoropyridin-2-yl)methyl)-5-methoxy-2-methyl-1H-indol-3-yl)-N-(2-methoxypyridin-4-yl)-2-oxoacetamide] | C (C = between 100 nM and 1000 nM) | < 25% | < 25%
COc1cc(NC(=O)C(=O)c2c(C)n(Cc3ccc(Cl)cc3)c3ccc(C(=O)N(C)C)cc23)ccn1 [Compound 6, 1-(4-chlorobenzyl)-3-(2-(2-methoxypyridin-4-ylamino)-2-oxoacetyl)-N,N,2-trimethyl-1H-indole-5-carboxamide] |  | < 25% | < 25%
COc1ccc2c(c1)c(C(=O)C(=O)Nc1ccnc(OC)c1Cl)c(C)n2Cc1ccc(Cl)cc1 [Compound 52, N-(3-chloro-2-methoxypyridin-4-yl)-2-(1-(4-chlorobenzyl)-5-methoxy-2-methyl-1H-indol-3-yl)-2-oxoacetamide] |  | < 25% | < 25%
COc1cc(NC(=O)C(=O)c2c(C)n(Cc3ccc(Cl)cc3)c3ncc(C)cc23)ccn1 [Compound 76, 2-(1-(4-chlorobenzyl)-2,5-dimethyl-1H-pyrrolo[2,3-b]pyridin-3-yl)-N-(2-methoxypyridin-4-yl)-2-oxoacetamide] | C (C = between 100 nM and 1000 nM) |  | 
COc1ccc2c(c1)c(C(=O)C(=O)Nc1ccnc(OC)c1F)c(C)n2Cc1ccc(Cl)cc1 [Compound 53, 2-(1-(4-chlorobenzyl)-5-methoxy-2-methyl-1H-indol-3-yl)-N-(3-fluoro-2-methoxypyridin-4-yl)-2-oxoacetamide] |  | < 25% | < 25%
COc1cc(NC(=O)C(=O)c2c(C)n(Cc3ccc(Cl)cc3)c3ccc(CO)cc23)ccn1 [Compound 8, 2-(1-(4-chlorobenzyl)-5-(hydroxymethyl)-2-methyl-1H-indol-3-yl)-N-(2-methoxypyridin-4-yl)-2-oxoacetamide] | C (C = between 100 nM and 1000 nM) |  | 
COc1ccc2c(c1)c(C(=O)C(=O)Nc1ccnc(OC)c1)c(C)n2Cc1ncc(Cl)cc1OC [Compound 100, 2-(1-((5-chloro-3-methoxypyridin-2-yl)methyl)-5-methoxy-2-methyl-1H-indol-3-yl)-N-(2-methoxypyridin-4-yl)-2-oxoacetamide] |  | < 25% | < 25%
COc1ccc(Cn2c(C)c(C(=O)C(=O)Nc3ccnc(OC)c3)c3cc(OC)cnc32)nc1 [Compound 40, 2-(5-methoxy-1-((5-methoxypyridin-2-yl)methyl)-2-methyl-1H-pyrrolo[2,3-b]pyridin-3-yl)-N-(2-methoxypyridin-4-yl)-2-oxoacetamide] |  | < 25% | < 25%
COc1cc(NC(=O)C(=O)c2c(C)n(Cc3ccc(Cl)cc3)c3cc(C)c(OC)cc23)ccn1 [Compound 74, 2-(1-(4-chlorobenzyl)-5-methoxy-2,6-dimethyl-1H-indol-3-yl)-N-(2-methoxypyridin-4-yl)-2-oxoacetamide] | C (C = between 100 nM and 1000 nM) |  | 
COc1cc(NC(=O)C(=O)c2c(C)n(Cc3ccc(Cl)cc3)c3ccc(N(C)C(=O)OC(C)(C)C)cc23)ccn1 [Compound 7, Tert-butyl(1-(4-chlorobenzyl)-3-(2-((2-methoxypyridin-4-yl)amino)-2-oxoacetyl)-2-methyl-1H-indol-5-yl)(methyl)carbamate] |  | < 25% | < 25%
COc1cc(NC(=O)C(=O)c2c(C)n(Cc3ccc(Cl)cn3)c3ccc(N(C)C)cc23)ccn1 [Compound 66, 2-(1-((5-chloropyridin-2-yl)methyl)-5-(dimethylamino)-2-methyl-1H-indol-3-yl)-N-(2-methoxypyridin-4-yl)-2-oxoacetamide] | D (D = greater than 1000 nM) |  | 
COc1cc(NC(=O)C(=O)c2c(C)n(Cc3ccc(Cl)cc3)c3ccc(COC(C)=O)cc23)ccn1 [Compound 10, (1-(4-chlorobenzyl)-3-(2-(2-methoxypyridin-4-ylamino)-2-oxoacetyl)-2-methyl-1H-indol-5-yl)methyl acetate] | C (C = between 100 nM and 1000 nM) |  | 
COc1cc(NC(=O)C(=O)c2c(C)n(Cc3ccc(Cl)cc3)c3c(OC)cccc23)ccn1 [Compound 51, 2-(1-(4-chlorobenzyl)-7-methoxy-2-methyl-1H-indol-3-yl)-N-(2-methoxypyridin-4-yl)-2-oxoacetamide] |  | < 25% | < 25%
